Read-outs that look alike come from different tables or passages of the source.
Experiments:
Mcl-1 protein = Mcl-1 protein (UniProtKB Q07820) (Homo sapiens (Human), UniProt Q07820); assay: Inhibition of Mcl-1 by the fluorescence polarisation assay (Example A, Method A); assay type: binding; details: fluorescence polarization assay
How it was run: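 Protein (5 nM) and fluorescein-tagged peptide tracer (1 nM) incubated with 11-point compound series for 2 h at room temperature in HEPES/NaCl/Tween 20 buffer, pH 7.4, 5% DMSO. Displacement read as decrease in polarisation; IC50 fitted by 4-parameter logistic, converted to Ki (cKi or eKi).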

[1] = tested on: H929 multiple myeloma tumor line; assay: In vitro cytotoxicity, MTT assay (Example B, Method A); assay type: cell-based; details: H929 cells, 48 hours exposure, read-out: C50
Experimental: The cytotoxicity studies were carried out on the H929 multiple myeloma tumor line.
The cells are distributed onto microplates and exposed to the test compounds for 48 hours. The cell viability is then quantified by a colorimetric assay, the Microculture Tetrazolium Assay (Carmichael et al, Cancer Res. 1987, 47, 939-942).
The results are expressed in C50 which means concentration corresponding to […] of effect/inhibition.

Chain of Mcl-1 protein (Q07820 whole entry): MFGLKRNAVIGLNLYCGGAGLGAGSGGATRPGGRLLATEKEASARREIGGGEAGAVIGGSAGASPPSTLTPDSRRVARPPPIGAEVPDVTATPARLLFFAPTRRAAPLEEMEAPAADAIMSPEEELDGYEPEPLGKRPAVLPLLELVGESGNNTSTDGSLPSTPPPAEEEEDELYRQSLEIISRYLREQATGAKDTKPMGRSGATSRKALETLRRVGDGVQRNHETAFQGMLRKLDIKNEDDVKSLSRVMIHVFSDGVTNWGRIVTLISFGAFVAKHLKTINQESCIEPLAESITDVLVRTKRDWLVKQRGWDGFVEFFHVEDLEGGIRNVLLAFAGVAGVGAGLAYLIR

Row | Compound | Ki (Mcl-1 protein) | IC50 ([1]; Homo sapiens, NCI-H929, 48 h) | IC50 [1]
1 | O=C(O)[C@]1(Nc2cccc(Cl)c2)CC[C@@]2(CC1)c1ccccc1CC2CCCOc1ccnc2c1CCC2 (stereo partly drawn) [Example 452, (1r,4r)-4-(3-chloroanilino)-2′-{3-[(6,7-dihydro-5H-cyclopenta[b]pyridin-4-yl)oxy]propyl}-2′,3′-dihydrospiro[cyclohexane-1,1′-indene]-4-carboxylic acid] | 30 nM | 2.44 µM | 
2 | O=C(O)[C@]1(Nc2cccc(Cl)c2)CC[C@]2(CC1)C(c1cccc(OCc3cccnc3)c1)=Cc1ccccc12 [Example 363, (1s,4s)-4-(3-chloroanilino)-2′-{3-[(pyridin-3-yl)methoxy]phenyl}spiro[cyclohexane-1,1′-indene]-4-carboxylic acid] | 227 nM | 30 µM | 
3 | C[C@@H](COc1ncnc2c1CCC2)CC1Cc2ccccc2[C@]12CC[C@@](Nc1cccc(Cl)c1)(C(=O)O)CC2 (stereo partly drawn) [Example 593, (1r,4R)-4-(3-chloroanilino)-2′-{(2R)-3-[(6,7-dihydro-5H-cyclopenta[d]pyrimidin-4-yl)oxy]-2-methylpropyl}-2′,3′-dihydrospiro[cyclohexane-1,1′-indene]-4-carboxylic acid] | 14.5 nM | 2.01 µM | 
4 | CC[C@H](COc1ccnc2ccsc12)C[C@@H]1Cc2ccccc2[C@]12CC[C@@](Nc1cccc(Cl)c1)(C(=O)O)CC2 [Example 536, (1r,2′R,4R)-4-(3-chloroanilino)-2′-[(2S)-2-{[(thieno[3,2-b]pyridin-7-yl)oxy]methyl}butyl]-2′,3′-dihydrospiro[cyclohexane-1,1′-indene]-4-carboxylic acid] | 2100 nM | 17.2 µM | 
5 | O=C(O)[C@]1(Nc2cccc(Cl)c2)CC[C@@]2(CC1)c1ccccc1C[C@H]2c1cccc(OCc2ccccc2)c1 [Example 332, (1r,2′S,4S)-2′-[3-(benzyloxy)phenyl]-4-(3-chloroanilino)-2′,3′-dihydrospiro[cyclohexane-1,1′-indene]-4-carboxylic acid] | 475 nM | 16.4 µM | 
6 | CC(C)C(COc1ccncc1)CC1Cc2ccccc2[C@]12CC[C@@](Nc1cccc(Cl)c1)(C(=O)O)CC2 (single isomer, unassigned) [Example 532, (1r,4r)-4-(3-chloroanilino)-2′-(3-methyl-2-{[(pyridin-4-yl)oxy]methyl}butyl)-2′,3′-dihydrospiro[cyclohexane-1,1′-indene]-4-carboxylic acid] | 809 nM |  | 12.6 µM
7 | O=C(O)[C@]1(Nc2cccc(Cl)c2)CC[C@]2(CC1)C(c1ccc(Oc3ccccc3)cc1)=Cc1ccccc12 [Example 341, (1s,4s)-4-(3-chloroanilino)-2′-(4-phenoxyphenyl)spiro[cyclohexane-1,1′-indene]-4-carboxylic acid] | 159 nM | 9.26 µM | 
8 | O=C(O)[C@]1(Nc2cccc(Cl)c2)CC[C@@]2(CC1)c1ccccc1CC2CCCOc1ccncc1C1CC1 (stereo partly drawn) [Example 464, (1r,4r)-4-(3-chloroanilino)-2′-{3-[(3-cyclopropylpyridin-4-yl)oxy]propyl}-2′,3′-dihydrospiro[cyclohexane-1,1′-indene]-4-carboxylic acid] | 49.1 nM | 14.8 µM | 
9 | C[C@@H](COc1ccnc2c1CC(C)(C)CC2)C[C@H]1Cc2ccccc2[C@]12CC[C@@](Nc1cccc(Cl)c1)(C(=O)O)CC2 [Example 652, (1r,2′S,4S)-4-(3-chloroanilino)-2′-{(2R)-3-[(6,6-dimethyl-5,6,7,8-tetrahydroquinolin-4-yl)oxy]-2-methylpropyl}-2′,3′-dihydrospiro[cyclohexane-1,1′-indene]-4-carboxylic acid] | 20.3 nM | 4.71 µM | 
10 | CC[C@H](COc1ccnc2ccsc12)C[C@H]1Cc2ccccc2[C@]12CC[C@@](Nc1cccc(Cl)c1)(C(=O)O)CC2 [Example 537, (1r,2′S,4S)-4-(3-chloroanilino)-2′-[(2S)-2-{[(thieno[3,2-b]pyridin-7-yl)oxy]methyl}butyl]-2′,3′-dihydrospiro[cyclohexane-1,1′-indene]-4-carboxylic acid] | 575 nM | 16 µM | 
11 | CC1CCc2nccc(OC[C@H](C)CC3Cc4ccccc4[C@]34CC[C@@](Nc3cccc(Cl)c3)(C(=O)O)CC4)c21 (single isomer, unassigned) [Example 600] | 4.26 nM | 0.512 µM | 
12 | O=C(O)[C@]1(Nc2cccc(Cl)c2)CC[C@@]2(CC1)c1ccccc1C[C@@H]2C[C@@H](COc1ccncc1)c1ccccc1 [Example 552, (1r,2′S,4S)-4-(3-chloroanilino)-2′-{(2R)-2-phenyl-3-[(pyridin-4-yl)oxy]propyl}-2′,3′-dihydrospiro[cyclohexane-1,1′-indene]-4-carboxylic acid] | 110 nM | 3.38 µM | 
13 | C[C@@H](COc1ncnc2c1C(C)(C)CC2)CC1Cc2ccccc2[C@]12CC[C@@](Nc1cccc(Cl)c1)(C(=O)O)CC2 (stereo partly drawn) [Example 595, (1r,4R)-4-(3-chloroanilino)-2′-{(2R)-3-[(5,5-dimethyl-6,7-dihydro-5H-cyclopenta[d]pyrimidin-4-yl)oxy]-2-methylpropyl}-2′,3′-dihydrospiro[cyclohexane-1,1′-indene]-4-carboxylic acid] | 29.9 nM | 1.51 µM | 
14 | O=C(O)[C@]1(Nc2cccc(Cl)c2)CC[C@]2(CC1)C(COCCc1ccccc1)=Cc1ccccc12 [Example 409, (1s,4s)-4-(3-chloroanilino)-2′-[(2-phenylethoxy)methyl]spiro[cyclohexane-1,1′-indene]-4-carboxylic acid] | 155 nM | 30 µM | 
15 | C[C@@H](COc1ccnc2occc12)C[C@H]1Cc2ccccc2[C@]12CC[C@@](Nc1cccc(Cl)c1)(C(=O)O)CC2 [Example 606, (1r,2′S,4S)-4-(3-chloroanilino)-2′-{(2R)-3-[(furo[2,3-b]pyridin-4-yl)oxy]-2-methylpropyl}-2′,3′-dihydrospiro[cyclohexane-1,1′-indene]-4-carboxylic acid] | 77.3 nM | 2.14 µM | 
16 | CC(C)C(COc1ccnc2ccsc12)CC1Cc2ccccc2C12CCC(Nc1cccc(Cl)c1)(C(=O)O)CC2 (stereo not drawn) [Example 525, (1r,4r)-4-(3-chloroanilino)-2′-(3-methyl-2-{[(thieno[3,2-b]pyridin-7-yl)oxy]methyl}butyl)-2′,3′-dihydrospiro[cyclohexane-1,1′-indene]-4-carboxylic acid] | 293 nM |  | 2.49 µM
17 | CC(C)C(COc1ccncc1)CC1Cc2ccccc2[C@]12CC[C@@](Nc1cccc(Cl)c1)(C(=O)O)CC2 (single isomer, unassigned) [Example 533, (1r,4r)-4-(3-chloroanilino)-2′-(3-methyl-2-{[(pyridin-4-yl)oxy]methyl}butyl)-2′,3′-dihydrospiro[cyclohexane-1,1′-indene]-4-carboxylic acid] | 785 nM |  | 14.5 µM
18 | Cc1cnccc1OCCC[C@@H]1Cc2ccccc2[C@]12CC[C@@](Nc1cccc(Cl)c1)(C(=O)O)CC2 [Example 448, (1r,2′R,4R)-4-(3-chloroanilino)-2′-{3-[(3-methylpyridin-4-yl)oxy]propyl}-2′,3′-dihydrospiro[cyclohexane-1,1′-indene]-4-carboxylic acid] | 65.4 nM | 10.5 µM | 
19 | O=C(O)[C@]1(Nc2cccc(Cl)c2)CC[C@]2(CC1)C(CCOc1cccc3[nH]ccc13)=Cc1ccccc12 [Example 192, (1r,4r)-4-(3-chloroanilino)-2′-{2-[(1H-indol-4-yl)oxy]ethyl}spiro[cyclohexane-1,1′-indene]-4-carboxylic acid] | 61.5 nM | 4.19 µM | 
20 | O=C(O)[C@]1(Nc2cccc(Cl)c2)CC[C@]2(CC1)C(CCOc1ccncc1F)=Cc1ccccc12 [Example 190, (1r,4r)-4-(3-chloroanilino)-2′-{2-[(3-fluoropyridin-4-yl)oxy]ethyl}spiro[cyclohexane-1,1′-indene]-4-carboxylic acid] | 44.3 nM | 6.4 µM | 
21 | Cc1cnccc1OCCC[C@H]1Cc2ccccc2[C@]12CC[C@@](Nc1cccc(Cl)c1)(C(=O)O)CC2 [Example 449, (1r,2′S,4S)-4-(3-chloroanilino)-2′-{3-[(3-methylpyridin-4-yl)oxy]propyl}-2′,3′-dihydrospiro[cyclohexane-1,1′-indene]-4-carboxylic acid] | 80 nM | 9.27 µM | 
22 | O=C(O)[C@]1(Nc2cccc(Cl)c2)CC[C@@]2(CC1)c1ccccc1CC2CCCOc1ncnc2c1CCC2 (mixture of isomers) [Example 459, (1r,4r)-4-(3-chloroanilino)-2′-{3-[(6,7-dihydro-5H-cyclopenta[d]pyrimidin-4-yl)oxy]propyl}-2′,3′-dihydrospiro[cyclohexane-1,1′-indene]-4-carboxylic acid] | 85.7 nM | 6.96 µM | 
23 | O=C(O)[C@]1(Nc2cccc(Cl)c2)CC[C@@]2(CC1)c1ccccc1CC2CCCOc1ccncc1C(F)(F)F (stereo partly drawn) [Example 463, (1r,4r)-4-(3-chloroanilino)-2′-(3-{[3-(trifluoromethyl)pyridin-4-yl]oxy}propyl)-2′,3′-dihydrospiro[cyclohexane-1,1′-indene]-4-carboxylic acid] | 59.2 nM | 8.23 µM | 
24 | CC(C)C(COc1cccnc1)CC1Cc2ccccc2[C@]12CC[C@@](Nc1cccc(Cl)c1)(C(=O)O)CC2 (single isomer, unassigned) [Example 526, (1r,4r)-4-(3-chloroanilino)-2′-(3-methyl-2-{[(pyridin-3-yl)oxy]methyl}butyl)-2′,3′-dihydrospiro[cyclohexane-1,1′-indene]-4-carboxylic acid] | 1860 nM | 30 µM | 
